Here are results for two compounds from paper PMC7955776 (Investigational new drugs, 2020).

The test system of one data set is metastatic TNBC. As to conditions: in combination with first line docetaxel, metastatic TNBC patients; cited from earlier work.
A short description of a further data set: clinical. The following applies: human, in vivo, iv, 80 mg/m2.
For data set [1] the following is noted: human, in vivo, iv, 80 mg/m2.
Data set [2] in a line: Paclitaxel plasma pharmacokinetics alone and in combination with RO4929097. As to conditions: 80 mg/m2 IV.

The structures appear in SMILES notation.

Regarding `CCC[C@H](N[C@H]1CCc2cc(F)cc(F)c2C1)C(=O)Nc1cn(C(C)(C)CNCC(C)(C)C)cn1` [PF-03084014], in the data set on metastatic TNBC, the Partial response is on record as 16% and the Stable disease is listed as 36%.
Usually AUC(0-inf) stands for total exposure, with the tail of the curve extrapolated. High values mean high exposure, low ones low exposure. As usually defined, the half-life is the time needed for the level to fall by half in the phase considered. High values mean slow decline, low ones rapid decline. In “clinical”, `CC(=O)O[C@H]1C(=O)[C@@]2(C)[C@H]([C@H](OC(=O)c3ccccc3)[C@]3(O)C[C@H](OC(=O)[C@H](O)[C@@H](NC(=O)c4ccccc4)c4ccccc4)C(C)=C1C3(C)C)[C@]1(OC(C)=O)CO[C@@H]1C[C@@H]2O` [Paclitaxel, paclitaxel] showed an AUC(0-inf) of 4800 ± 1170 ng·h/mL and a half-life of 10.3 ± 2.5 h. Moreover, in data set [1], the “AUC INF” value came to 4911 ± 1078 ng·h/mL and the Half life was found to be 11.3 ± 2.5 h. For the same compound, the “Paclitaxel PK alone (day -1) versus in combination with RO4929097 (day 15)” value in data set [2] is given as “No significant differences”.
